In patent US20250270172A1, “Pyrimidine Derivatives As Modulators of the 5-HT2A Serotonin Receptor Useful For The Treatment of Disorders Related Thereto” (Arena Pharmaceuticals, Inc., priority 2020, published 2025):
Where two headings read alike, the source gives them in different places.

Legend:
[1] = target: T1, 5-HT2A (Homo sapiens (Human), UniProt P28223); test: Radioligand binding assay, [^3H]5-HT competition, 5-HT2A; conditions: read-out: 5-HT2A serotonin binding Ki value
[2] = target: T1, 5-HT2A; test: HTRF IP-One antagonist assay, 5-HT2A; format: cell-based; conditions: HEK293 cells stably expressing receptor, inositol phosphate accumulation, 80 nM 5-HT in Assay Buffer;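 further: clonal line with low receptor density (about 50–70 fmol/mg), 10-point dose-response from 10 µM in 5-fold steps, HTRF detection after 1 hr, triplicate points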
[3] = target: 5-HT2B (Homo sapiens (Human), UniProt P41595); test: HTRF IP-One antagonist assay, 5-HT2B; format: cell-based; conditions: HEK293 cells stably expressing receptor, inositol phosphate accumulation, 80 nM 5-HT in Assay Buffer;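 further: clonal HEK293 line with low 5-HT2B expression (estimated 150-200 fmol/mg by radioligand binding), IP-One HTRF readout, 10-point curves from 10 µM in 5-fold steps, triplicate points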
5-HT2B, sequence (P41595 whole entry): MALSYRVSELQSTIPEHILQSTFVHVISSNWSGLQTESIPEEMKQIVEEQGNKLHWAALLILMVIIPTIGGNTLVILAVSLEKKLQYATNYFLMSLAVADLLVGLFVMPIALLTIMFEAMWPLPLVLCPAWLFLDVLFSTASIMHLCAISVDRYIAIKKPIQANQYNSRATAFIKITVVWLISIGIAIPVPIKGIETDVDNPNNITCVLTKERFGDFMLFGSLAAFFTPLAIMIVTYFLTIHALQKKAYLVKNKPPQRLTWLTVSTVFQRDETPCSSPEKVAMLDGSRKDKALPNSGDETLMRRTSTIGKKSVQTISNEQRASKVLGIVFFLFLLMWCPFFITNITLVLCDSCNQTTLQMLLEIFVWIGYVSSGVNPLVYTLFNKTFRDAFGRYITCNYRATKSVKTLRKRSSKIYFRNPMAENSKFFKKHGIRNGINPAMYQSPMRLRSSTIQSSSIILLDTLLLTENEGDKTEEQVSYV

[4] = target: 5-HT2C (Homo sapiens (Human), UniProt P28335); test: HTRF IP-One antagonist assay, 5-HT2C; format: cell-based; conditions: HEK293 cells stably expressing receptor, inositol phosphate accumulation, 80 nM 5-HT in Assay Buffer;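 further: clonal HEK293 line with low 5-HT2C density (10–20 fmol/mg), HTRF detection of IP-One, 10-point dose curves from 10 µM in 5-fold steps, triplicate points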
5-HT2C, sequence (P28335 33-458): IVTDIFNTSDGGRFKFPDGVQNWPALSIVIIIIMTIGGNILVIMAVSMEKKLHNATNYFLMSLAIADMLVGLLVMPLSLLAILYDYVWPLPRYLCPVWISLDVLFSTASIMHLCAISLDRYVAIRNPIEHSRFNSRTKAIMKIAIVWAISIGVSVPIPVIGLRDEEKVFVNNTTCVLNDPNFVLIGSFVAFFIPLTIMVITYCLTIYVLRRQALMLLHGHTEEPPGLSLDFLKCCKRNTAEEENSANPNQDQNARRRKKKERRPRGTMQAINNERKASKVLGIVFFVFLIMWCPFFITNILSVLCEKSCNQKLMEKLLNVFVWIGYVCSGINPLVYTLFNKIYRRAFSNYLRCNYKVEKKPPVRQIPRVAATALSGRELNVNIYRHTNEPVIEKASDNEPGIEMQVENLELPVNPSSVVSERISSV

[5] = [^3H]5-HT radioligand, membranes of HEK293 cells expressing recombinant 5-HT2A, Ki from IC50 by Cheng-Prusoff

T1 sequence (P28223 whole entry): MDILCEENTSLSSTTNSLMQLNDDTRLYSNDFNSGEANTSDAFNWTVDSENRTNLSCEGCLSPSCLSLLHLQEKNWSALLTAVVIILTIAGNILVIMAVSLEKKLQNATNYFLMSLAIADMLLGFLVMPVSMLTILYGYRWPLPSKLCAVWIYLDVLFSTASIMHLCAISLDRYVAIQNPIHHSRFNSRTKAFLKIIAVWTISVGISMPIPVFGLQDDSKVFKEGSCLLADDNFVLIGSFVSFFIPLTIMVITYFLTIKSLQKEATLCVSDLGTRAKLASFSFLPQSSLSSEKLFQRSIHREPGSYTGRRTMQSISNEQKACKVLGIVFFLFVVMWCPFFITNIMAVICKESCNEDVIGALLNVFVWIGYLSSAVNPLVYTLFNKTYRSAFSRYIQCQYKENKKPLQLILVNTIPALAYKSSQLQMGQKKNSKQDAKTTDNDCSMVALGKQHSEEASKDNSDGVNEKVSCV

In the case of `Cc1ncnc(C)c1-c1cc(NC(=O)C2(CF)CC2)ccc1OCCN1CCCC1` [Compound 293, N-(3-(4,6-dimethylpyrimidin-5-yl)-4-(2-(pyrrolidin-1-yl)ethoxy)phenyl)-1-(fluoromethyl)cyclopropane-1-carboxamide], the Ki [1, 5] is reported as 8.56 nM, the IC50 [2] is reported as 15.9 nM and the IC50 [3] is reported as 9370 nM. The IC50 [4] was 100000 nM.
Work on `Cc1ncnc(C)c1-c1cc(NC(=O)c2ccnn2C)ccc1OCCN1CCC1` [Compound 304, N-[4-[2-(azetidin-1-yl)ethoxy]-3-(4,6-dimethylpyrimidin-5-yl)phenyl]-2-methyl-pyrazole-3-carboxamide] yielded a Ki [1, 5] of 7.25 nM, an IC50 [2] of 8.86 nM and an IC50 [3] of 100000 nM. The IC50 [4] was 100000 nM.
With `Cc1ncnc(C)c1-c1cc(NC(=O)C2(F)CC2)ccc1OCCN1CCC1` [Compound 305, N-(4-(2-(azetidin-1-yl)ethoxy)-3-(4,6-dimethylpyrimidin-5-yl)phenyl)-1-fluorocyclopropane-1-carboxamide] the Ki [1, 5] was 2.61 nM, the IC50 [2] was 4.44 nM and the IC50 [3] was 100000 nM. The IC50 [4] was 100000 nM.
For `Cc1ncsc1CC(=O)Nc1ccc(OCCN2CCC2)c(-c2c(C)ncnc2C)c1` [Compound 307, N-(4-(2-(azetidin-1-yl)ethoxy)-3-(4,6-dimethylpyrimidin-5-yl)phenyl)-2-(4-methylthiazol-5-yl)acetamide], the Ki [1] was 5.89 nM, the IC50 [2] was 9.84 nM and the IC50 [3] was no less than 100000 nM. For the same compound, the IC50 [4] was 100000 nM.
In the case of `Cc1ncnc(C)c1-c1cc(NC(=O)c2ccccc2)ccc1OCCN1CCC1` [Compound 308, N-(4-(2-(azetidin-1-yl)ethoxy)-3-(4,6-dimethylpyrimidin-5-yl)phenyl)benzamide], the Ki [1, 5] is reported as 3.28 nM, the IC50 [2] is reported as 14.7 nM and the IC50 [3] is reported as 100000 nM. It also gave an IC50 [4] of 100000 nM.
`Cc1ncnc(C)c1-c1cc(NC(=O)c2ccc(F)cc2)ccc1OCCN1CCC1` [Compound 309, N-(4-(2-(azetidin-1-yl)ethoxy)-3-(4,6-dimethylpyrimidin-5-yl)phenyl)-4-fluorobenzamide] was tested, and the Ki [1, 5] was 1.71 nM, the IC50 [2] was 6.32 nM and the IC50 [3] was 806 nM. The IC50 [4] was 100000 nM.
`COc1cccc(C(=O)Nc2ccc(OCCN3CCC3)c(-c3c(C)ncnc3C)c2)c1` [Compound 310, N-(4-(2-(azetidin-1-yl)ethoxy)-3-(4,6-dimethylpyrimidin-5-yl)phenyl)-3-methoxybenzamide] showed a Ki [1, 5] of 1.58 nM, an IC50 [2] of 3.31 nM and an IC50 [3] of 1910 nM. For the same compound, the IC50 [4] was 100000 nM.
`Cc1ncnc(C)c1-c1cc(NC(=O)Cc2cncc(F)c2)ccc1OCCN1CCC1` [Compound 314, N-(4-(2-(azetidin-1-yl)ethoxy)-3-(4,6-dimethylpyrimidin-5-yl)phenyl)-2-(5-fluoropyridin-3-yl)acetamide] was tested, and the Ki [1, 5] was 5.42 nM, the IC50 [2] was 15.3 nM and the IC50 [3] was 100000 nM. It also gave an IC50 [4] of 100000 nM.
For `Cc1ncnc(C)c1-c1cc(NC(=O)c2c(F)cnn2C)ccc1OCCN1CCC1` [Compound 316, N-(4-(2-(azetidin-1-yl)ethoxy)-3-(4,6-dimethylpyrimidin-5-yl)phenyl)-4-fluoro-1-methyl-1H-pyrazole-5-carboxamide], the Ki [1, 5] was 4.98 nM, the IC50 [2] was 6.99 nM and the IC50 [3] was 3190 nM. For the same compound, the IC50 [4] was 100000 nM.
`COc1ccc(C(=O)Nc2ccc(OCCN3CCC3)c(-c3c(C)ncnc3C)c2)cc1` [Compound 318, N-(4-(2-(azetidin-1-yl)ethoxy)-3-(4,6-dimethylpyrimidin-5-yl)phenyl)-4-methoxybenzamide] gave a Ki [1, 5] of 4.09 nM, an IC50 [2] of 16.8 nM and an IC50 [3] of 4500 nM. The IC50 [4] was 100000 nM.
`Cc1ncnc(C)c1-c1cc(NC(=O)c2ccccc2F)ccc1OCCN1CCC1` [Compound 319, N-(4-(2-(azetidin-1-yl)ethoxy)-3-(4,6-dimethylpyrimidin-5-yl)phenyl)-2-fluorobenzamide] showed a Ki [1, 5] of 3.62 nM, an IC50 [2] of 14.3 nM and an IC50 [3] of 2360 nM. It also gave an IC50 [4] of 100000 nM.
With `Cc1ncnc(C)c1-c1cc(NC(=O)c2cccc(C#N)c2)ccc1OCCN1CCC1` [Compound 325, N-(4-(2-(azetidin-1-yl)ethoxy)-3-(4,6-dimethylpyrimidin-5-yl)phenyl)-3-cyanobenzamide] the Ki [1, 5] was 1.7 nM, the IC50 [2] was 8.54 nM and the IC50 [3] was 2890 nM. For the same compound, the IC50 [4] was 100000 nM.
`Cc1ncnc(C)c1-c1cc(NC(=O)C2CC2)ccc1OCCN1CCC1` [Compound 344, N-(4-(2-(azetidin-1-yl)ethoxy)-3-(4,6-dimethylpyrimidin-5-yl)phenyl)cyclopropanecarboxamide] was tested, and the Ki [1, 5] was 6.53 nM, the IC50 [2] was 10.2 nM and the IC50 [3] was 1210 nM. For the same compound, the IC50 [4] was 100000 nM.
With `COC1CCN(CCOc2ccc(NC(=O)C3CC3)cc2-c2c(C)ncnc2C)CC1` [Compound 351, N-(3-(4,6-dimethylpyrimidin-5-yl)-4-(2-(4-methoxypiperidin-1-yl)ethoxy)phenyl)cyclopropanecarboxamide] the Ki [1, 5] was 4.56 nM, the IC50 [2] was 7.03 nM and the IC50 [3] was 100000 nM. It also gave an IC50 [4] of 100000 nM.
For `CO[C@@H]1CCN(CCOc2ccc(NC(=O)C3CC3)cc2-c2c(C)ncnc2C)C1` [Compound 353, (R)—N-(3-(4,6-dimethylpyrimidin-5-yl)-4-(2-(3-methoxypyrrolidin-1-yl)ethoxy)phenyl)cyclopropanecarboxamide], the Ki [1, 5] was 4.06 nM, the IC50 [2] was 24.8 nM and the IC50 [3] was 100000 nM. It also gave an IC50 [4] of 100000 nM.
With `COCCNCCOc1ccc(NC(=O)C2CC2)cc1-c1c(C)ncnc1C` [Compound 361, N-(3-(4,6-dimethylpyrimidin-5-yl)-4-(2-((2-methoxyethyl)amino)ethoxy)phenyl)cyclopropanecarboxamide] the Ki [1, 5] was 4.33 nM, the IC50 [2] was 9.27 nM and the IC50 [3] was 100000 nM. It also gave an IC50 [4] of 100000 nM.
`Cc1ncnc(C)c1-c1cc(NC(=O)C2CC2)ccc1OC1CNC1` [Compound 396, N-[4-(azetidin-3-yloxy)-3-(4,6-dimethylpyrimidin-5-yl)phenyl]cyclopropanecarboxamide] gave a Ki [1, 5] of 5.93 nM, an IC50 [2] of 50.5 nM and an IC50 [3] of 100000 nM. It also gave an IC50 [4] of 100000 nM.
`Cc1ncnc(C)c1-c1cc(NC(=O)C2(F)CC2)ccc1OC1CNC1` [Compound 398, N-(4-(azetidin-3-yloxy)-3-(4,6-dimethylpyrimidin-5-yl)phenyl)-1-fluorocyclopropane-1-carboxamide] gave a Ki [1, 5] of 6.26 nM, an IC50 [2] of 33.8 nM and an IC50 [3] of 100000 nM. For the same compound, the IC50 [4] was 100000 nM.
Compound `Cc1ncnc(C)c1-c1cc(NC(=O)c2ccccc2)ccc1OC1CNC1` [Compound 400, N-(4-(azetidin-3-yloxy)-3-(4,6-dimethylpyrimidin-5-yl)phenyl)benzamide] has a Ki [1, 5] of 4.2 nM, an IC50 [2] of 38.6 nM and an IC50 [3] of 100000 nM. For the same compound, the IC50 [4] was 100000 nM.
`Cc1ncnc(C)c1-c1cc(NC(=O)[C@@H]2C[C@H]2F)ccc1O[C@@H]1CCCNC1` [Compound 409, (1S,2R)—N-(3-(4,6-dimethylpyrimidin-5-yl)-4-(((R)-piperidin-3-yl)oxy)phenyl)-2-fluorocyclopropane-1-carboxamide] showed a Ki [1, 5] of 6.67 nM, an IC50 [2] of 18.9 nM and an IC50 [3] of 2920 nM. For the same compound, the IC50 [4] was 100000 nM.
`Cc1ncnc(C)c1-c1cc(NC(=O)C2(F)CC2)ccc1OC[C@H]1CCCCN1` [Compound 438, N-[3-(4,6-dimethylpyrimidin-5-yl)-4-[[(2R)-2-piperidyl]methoxy]phenyl]-1-fluoro-cyclopropanecarboxamide] was tested, and the Ki [1, 5] was 9.18 nM, the IC50 [2] was 16.4 nM and the IC50 [3] was 100000 nM. The IC50 [4] was 100000 nM.
